Holding throughout (type): in vivo, Wistar rats
For data set [1], the system named is rats exposed to 8-12 kHz band noise for 24 hours at 110 dB SPL. Put plainly: ABR threshold recovery after prolonged (24 hours) noise exposure, systemic ADAC (Experiment 1). The note with it: for recovery of ABR thresholds: 24 h noise 110 dB SPL. On the procedure: In Experiments 1 and 2, Wistar rats were exposed to noise (8-12 kHz, 110 dB SPL for 2-24 hours). ADAC was then administered to the Wistar rats at 100 μg/kg/day. The ADAC was either administered as a single injection 6 hours after noise exposure, or as a single injection 24 hours after noise exposure, or as multiple injections, with the first injection of the multiple injections being administered 6 hours after noise exposure.
Hearing thresholds were assessed using auditory brainstem responses (ABRs) and the cellular damage was evaluated by quantitative histology (hair cell loss). ABR represents the activity of the auditory nerve and the central auditory pathways (brainstem/mid-brain regions) responding to the sound (clicks or pure tones). Nitrotyrosine marker was used for the immunohistochemical assessment of free radical damage.
Adenosine amine congener (ADAC) was obtained from Dr Ken Jacobson (NIH, Bethesda, USA). ADAC ([…]) was dissolved first in 100 μL of 1N HCl and then in 50 ml of 0.1 M PBS (pH 7.4), making a 50 μg/mL stock solution. This solution was aliquoted at 1 mL in eppendorf tubes, and stored at −20° C. for later use. When required, the ADAC aliquots were heated in a 37° C. water bath for 30 minutes before administration. ADAC injection dose was […] given intraperitoneally, 200 μl/100 g body weight.
The rats were exposed to 8-12 kHz band noise presented for 24 hours at 110 dB SPL. This was done in a custom built acoustic chamber (Shelburg Acoustics, Sydney, Australia) with internal speakers and external controls (sound generator and frequency selector). Sound intensity inside the chamber was tested using a calibrated Rion NL-40 sound level meter to ensure minimal deviations of sound intensity (110±1 dB SPL). Up to 4 rats were placed in the chamber in a standard rat cage. They were introduced to the sound chamber at 1 hour intervals so that the timing of subsequent ABRs could be kept consistent for all rats.
ABR represents the activity of the auditory nerve and the central auditory pathways (brainstem/mid-brain regions) responding to the sound (clicks or pure tones). ABRs were obtained by placing fine platinum electrodes subdermally at the mastoid region of the ear of interest (active electrode), scalp vertex (reference) and mastoid region of the opposite ear (ground electrode). A series of auditory clicks or pure tones (4-28 kHz) presented at varying intensity and thresholds generate electrical activity reflecting differing levels of auditory processing. The sound threshold of the ABR complex (waves I-IV) were determined by progressively attenuating the sound intensity until the waveform can no longer be observed.
The acoustic stimuli for ABR were produced and the responses recorded using a Tucker-Davis Technologies auditory physiology workstation (Alachua, Fla., USA).
All ABR measurements were performed in a sound attenuator chamber (Shelburg Acoustics, Sydney, Australia). Rats were anaesthetised with the mixture of Ketamine (75 mg/kg) and Xylazine (10 mg/kg) intraperitoneally, and then placed onto a heating pad, to maintain body temperature at 37° C. ABR potentials were evoked with digitally produced 5 ms tone pips (0.5 ms rise-fall time) at frequencies between 4 and 28 kHz in half-octave steps. Sound pressure level (SPL) was raised in 5 dB steps starting from 10 dB below threshold level to 90 dB SPL. Responses were averaged at each sound level (1024 repeats with stimulus polarity alternated), and response waveforms were discarded when peak-to-peak amplitude exceeded 15 μV. The ABR threshold was defined as the lowest intensity (to the nearest 5 dB) at which a response could be visually detected above the noise floor.
ABR thresholds were measured before and after noise exposure, and after ADAC/vehicle treatment. Post-noise ABR recordings were obtained 1 hour before the rats received their first ADAC or vehicle injection. […]

For data set [2], the system named is organ of Corti hair cells. Put plainly: Hair cell loss, phalloidin-stained organ of Corti after 24 hours noise (Experiment 1). Particulars: basal turn, noise 8-12 kHz 110 dB SPL 24 hours, versus vehicle. The text has this: After the last ABR measurement, rats were killed by Pentobarbitone overdose and cochleae removed for histological analysis. The isolated cochleae were kept in 4% Paraformaldehyde overnight, until further processing (decapsulation or decalcification).
(§1) After the overnight fixation, the cochlea was decapsulated in 0.1 M PBS, to isolate the organ of Corti. The organ of Corti was removed with fine forceps, and separated into the apical, middle and basal turns. Wholemount tissues of the organ of Corti were placed into a 24-well plate, and then permeabilised with 1% Trition-X in 0.1 M PBS for 1 hour. 1% Alexa Fluor 488 phalloidin (Invitrogen) dissolved in 0.1 M PBS was used to stain the hair cells and their stereocilia. Tissues were incubated in phalloidin for 40 minutes, washed with 0.1 M PBS 3×10 min and mounted onto glass slides using CitiFlour. The slides were visualised using a Zeiss epi-fluorescence microscope and processed with Axiovision v3.1 software, using dark field filter and 100×, 200×, and 400× magnification. Non-overlapping images were taken for the entire length of the cochlea, and the number of missing outer hair cells was counted for each turn and presented as a percentage of total number of hair cells.

The nature of data set [3]: Body weight, temperature and behaviour in animals treated with ADAC (Experiment 2). As for the experimental part:
A. Body weight was measured immediately before noise exposure and 14 days after noise exposure. B. Rectal temperature (° C.) was measured before ADAC administration and 30 and 60 minutes after the injection. Number of animals: n=8 per group.

Data set [4] has as its system organ of Corti hair cells. Put plainly: Hair cell counts after acute (2 hours) noise exposure (Experiment 2). Particulars: 2 h noise 110 dB SPL; five ADAC injections; vehicle 23-34%. As for the experimental part: as §1
The percentage of total number of hair cells was determined as for Experiment 1.
The outer and inner hair cells were counted in Alexa 488 phalloidin-labelled surface preparation of the organ of Corti in the basal, middle and apical turns and the percentage of missing hair cells was calculated for each turn.

Take `NCCNC(=O)Cc1ccc(NC(=O)Cc2ccc(Nc3ncnc4c3ncn4[C@@H]3O[C@H](CO)[C@@H](O)[C@H]3O)cc2)cc1` [ADAC, adenosine amine congener]: the “effect on threshold recovery” value in data set [1] (ADAC administration 24 hours after noise exposure, FIG. 3) is “less pronounced”. For the same compound, in data set [1] (chronic treatment (5 days, five injections every 24 hours commencing 6 hours post-noise), 100 μg/kg i.p.), the “recovery of ABR thresholds at all pure tone frequencies” value is listed as 22-28 dB. The “highest recovery of ABR thresholds (mean ± SEM)” value in data set [1] (group that received multiple injections of ADAC (FIGS. 4 and 5), follows sentence on auditory clicks) was found to be 29 dB. Further, in data set [1] (prolonged ADAC treatment (5 injections), FIG. 4), the “best recovery of hearing thresholds” value is reported as under 25 dB. For the same compound, the “lowest recovery of ABR thresholds (mean ± SEM)” value in data set [1] (single ADAC injection 24 hours after noise exposure (FIGS. 3 and 5), follows sentence on auditory clicks) amounted to 8±2 dB. Besides, in data set [1] (single injection ADAC 100 μg/kg i.p. 24 hours after noise exposure), the “recovery of ABR thresholds” value was 5-12 dB. Further, the “recovery of ABR thresholds” value in data set [1] (single injection ADAC 100 μg/kg i.p., early treatment 6 hours after noise) is 17-26 dB. For the same compound, in data set [1] (single injection of ADAC 6 hours after noise exposure, pure tones and auditory clicks, p<0.05, p<0.01), the “threshold recovery versus control group” value was “statistically significant difference between the groups in the level of recovery”. The “hair cell morphology, surface preparation of the organ of Corti” value in data set [2] is “well preserved hair cell morphology”. The overt behavioural changes result in data set [3] (ADAC 100 μg/kg) is reported as “did not induce overt behavioural changes”. In addition, in data set [3] (ADAC 100 μg/kg, before noise exposure and 14 days after), the body weight entry is on record as “did not induce overt behavioural changes in rats or alterations in body weight”. The “signs of systemic toxicity (loss of body weight, feeding or drinking behaviour, hypothermia)” value in data set [3] (ADAC treatment) is “No signs of systemic toxicity”. In addition, the “body temperature (rectal)” value in data set [3] (before and 30 and 60 minutes after ADAC 100 μg/kg injection) is given as “remained stable”. In addition, in data set [4], the “hair cell loss, basal cochlear turn (average)” value was determined as 9% and the “hair cell loss, middle cochlear turn (average)” value stood at 7%.

For the origin of these results see patent publication US20110207689A1, “THE TREATMENT OF HEARING LOSS” (Auckland UniServices Limited, priority 2008, published 2011).
